Assay results from patent US7297708B2, “Heteroaromatic substituted cyclopropane as corticotropin releasing hormone ligands” (Bristol-Myers Squibb Company, priority 2001, dated 2007).

melting point: 46 to 48 °C
SMILES: COc1ccccc1C1(c2ncc(C)c(-c3ccc(Cl)cc3Cl)n2)CC1 [Compound 11, 4-(2,4-Dichloro-phenyl)-2-[1-(2-methoxy-phenyl)-cyclopropyl]-5-methyl-pyrimidine]
